Paper PMC6943552, “Glucosinolates in Sisymbrium officinale (L.) Scop.: Comparative Analysis in Cultivated and Wild Plants and in Vitro Assays with T2Rs Bitter Taste Receptors” (Molecules, 2019)

Target: T1, T2R16 (hT2R16) (Homo sapiens, UniProt Q9NYV7)
T1 construct: gene TAS2R16; coding region with N-terminal rSST3 tag (45 N-terminal residues of rat somatostatin receptor subtype 3), pcDNA5, transient in HEK293 PEAKrapid Galpha16i/o44 cells
T1 sequence (Q9NYV7 1-291): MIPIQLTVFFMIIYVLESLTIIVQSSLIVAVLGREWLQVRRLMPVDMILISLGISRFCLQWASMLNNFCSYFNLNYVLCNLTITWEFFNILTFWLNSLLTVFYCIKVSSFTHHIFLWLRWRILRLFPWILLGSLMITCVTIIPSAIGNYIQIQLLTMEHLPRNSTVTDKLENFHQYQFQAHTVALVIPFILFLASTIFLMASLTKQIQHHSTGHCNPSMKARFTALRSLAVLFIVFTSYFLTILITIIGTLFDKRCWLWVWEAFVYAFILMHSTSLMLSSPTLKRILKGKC
Test: FLIPR calcium imaging (Cal520-AM)
Assay type: cell-based

CC(C)/C(=N/OS(=O)(=O)O)S[C@@H]1O[C@H](CO)[C@@H](O)[C@H](O)[C@H]1O [compound 3, glucoputranjivin] was tested, and the EC50 was greater than 1000 µM.
